Assay results taken from article PMC9528096, “A phase Ib study of camrelizumab in combination with apatinib and fuzuloparib in patients with recurrent or metastatic triple-negative breast cancer” (BMC Medicine, 2022).

Assay: clinical
Design: species or system human
Details: in vivo; for Tmax: human
Method: Adverse events were monitored throughout the study treatment from informed consent until 90 days after the last camrelizumab dose or 30 days after the last apatinib or fuzuloparib dose, whichever occurred later, and were graded according to the National Cancer Institute Common Terminology Criteria for Adverse Events version 5.0. Radiographic assessment was performed by computed tomography (CT) or magnetic resonance imaging (MRI) according to RECIST version 1.1 at baseline and every two cycles. Complete or partial responses were confirmed 4 weeks later. Blood samples for pharmacokinetic analysis of apatinib and fuzuloparib were collected in all patients enrolled in the dose-finding part and in six to eight patients enrolled in the dose-expansion part. To evaluate the pharmacokinetic data of single-agent apatinib, patients intended for pharmacokinetic analysis were given apatinib alone 3 days before combination treatment initiation. Blood samples were collected 30 min pre-dose, 30 min, 1 h, 2 h, 3 h, 4 h, 8 h, 12 h, and 24 h post-dose on day − 3 of cycle 0 and day 1 of cycle 1.
The primary endpoint was DLT in cycle 1.
Safety and antitumor activity analyses were performed in all patients who received at least one dose of the study treatment. Continuously distributed data were summarized as mean (standard deviation) or median (range). Categorical data were summarized by the number and percentage of patients in each category. Adverse events were summarized descriptively. Two-sided 95% confidence intervals (CIs) for ORR and DCR were calculated using the Clopper-Pearson method. The PFS, DOR, and 12-month OS rate and their corresponding 95% CIs were estimated using the Kaplan–Meier method. Analyses of safety and antitumor activity were performed with SAS version 9.4. Pharmacokinetic parameters were descriptively summarized with non-compartmental analysis using WinNonlin (version 8.2).

SMILES: N#CC1(c2ccc(NC(=O)c3cccnc3NCc3ccncc3)cc2)CCCC1 [Apatinib, apatinib]
- Tmax: 2 h
- Apatinib exposure before and after co-administration with fuzuloparib: comparable

SMILES: O=C(c1cc(Cc2n[nH]c(=O)c3ccccc23)ccc1F)N1CCn2nc(C(F)(F)F)nc2C1 [Fuzuloparib, fuzuloparib]
- Tmax: 3 h
